{"source": "patent US7211572B2", "about": "(Japan Tobacco Inc., priority 2003, dated 2007)", "molecular_target": "T1, HIV integrase (Human immunodeficiency virus type 1 group M subtype B, UniProt P12497, F1332H)", "T1 construct": "HIV integrase full length gene; made in house; host or cells: Escherichia coli BL21(DE3), plasmid pET21a-INH", "test": "Determination of enzyme (HIV integrase) inhibitory activity", "assay_type": "biochemical", "conditions": "recombinant HIV integrase (F185H), strand transfer ELISA, absorbance at 450 nm", "how_it_was_run": "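Full-length integrase with F185H, expressed in E. coli and purified, was reacted for 60 min at 37 °C with compound and biotinylated donor DNA bound to streptavidin plates. Target DNA was added for 10 min, then anti-digoxigenin-peroxidase detection at A450; IC50 from % inhibition versus enzyme-free blank.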", "note": "Where a name gives a salt, the structure may show the parent alone.", "data": [{"molecule": "CCCNC(=O)c1cn2ccn(Cc3cccc(Cl)c3)c(=O)c2c(O)c1=O", "note": "[Example 171, N-propyl-2-(3-chlorobenzyl)-9-hydroxy-1,8-dioxo-1,8-dihydro-2H-pyrido[1,2-a]pyrazine-7-carboxamide]", "values": [{"measurement": "IC50", "value": "< 10", "unit": "nM"}]}, {"molecule": "CCCCNC(=O)c1cn2ccn(Cc3cccc(Cl)c3)c(=O)c2c(O)c1=O", "note": "[Example 172, N-butyl-2-(3-chlorobenzyl)-9-hydroxy-1,8-dioxo-1,8-dihydro-2H-pyrido[1,2-a]pyrazine-7-carboxamide]", "values": [{"measurement": "IC50", "value": "< 10", "unit": "nM"}]}, {"molecule": "CC(C)CNC(=O)c1cn2ccn(Cc3cccc(Cl)c3)c(=O)c2c(O)c1=O", "note": "[Example 173, N-isobutyl-2-(3-chlorobenzyl)-9-hydroxy-1,8-dioxo-1,8-dihydro-2H-pyrido[1,2-a]pyrazine-7-carboxamide]", "values": [{"measurement": "IC50", "value": "10 to 100", "unit": "nM"}]}, {"molecule": "COC(=O)CNC(=O)c1cn2ccn(Cc3cccc(Cl)c3)c(=O)c2c(O)c1=O", "note": "[Example 174, methyl{[2-(3-chlorobenzyl)-9-hydroxy-1,8-dioxo-1,8-dihydro-2H-pyrido[1,2-a]pyrazine-7-carbonyl]amino}acetate]", "values": [{"measurement": "IC50", "value": "10 to 100", "unit": "nM"}]}, {"molecule": "CCNC(=O)c1cn2ccn(Cc3cccc(Cl)c3)c(=O)c2c(O)c1=O", "note": "[Example 175, N-ethyl-2-(3-chlorobenzyl)-9-hydroxy-1,8-dioxo-1,8-dihydro-2H-pyrido[1,2-a]pyrazine-7-carboxamide]", "values": [{"measurement": "IC50", "value": "< 10", "unit": "nM"}]}, {"molecule": "COCCNC(=O)c1cn2ccn(Cc3cccc(Cl)c3)c(=O)c2c(O)c1=O", "note": "[Example 176, N-(2-methoxyethyl)-2-(3-chlorobenzyl)-9-hydroxy-1,8-dioxo-1,8-dihydro-2H-pyrido[1,2-a]pyrazine-7-carboxamide]", "values": [{"measurement": "IC50", "value": "10 to 100", "unit": "nM"}]}, {"molecule": "O=C(NCCOC(=O)C(F)(F)F)c1cn2ccn(Cc3cccc(Cl)c3)c(=O)c2c(O)c1=O", "note": "[Example 177, 2-{[2-(3-chlorobenzyl)-9-hydroxy-1,8-dioxo-1,8-dihydro-2H-pyrido[1,2-a]pyrazine-7-carbonyl]amino}ethyl trifluoroacetate]", "values": [{"measurement": "IC50", "value": "10 to 100", "unit": "nM"}]}, {"molecule": "O=C(NCCO)c1cn2ccn(Cc3cccc(Cl)c3)c(=O)c2c(O)c1=O", "note": "[Example 178, N-(2-hydroxyethyl)-2-(3-chlorobenzyl)-9-hydroxy-1,8-dioxo-1,8-dihydro-2H-pyrido[1,2-a]pyrazine-7-carboxamide]", "values": [{"measurement": "IC50", "value": "10 to 100", "unit": "nM"}]}, {"molecule": "O=c1ccn2ccn(Cc3cccc(Cl)c3O)c(=O)c2c1O", "note": "[Example 179, 2-(3-chloro-2-hydroxybenzyl)-9-hydroxy-2H-pyrido[1,2-a]pyrazine-1,8-dione hydrochloride]", "values": [{"measurement": "IC50", "value": "10 to 100", "unit": "nM"}]}, {"molecule": "O=C(NCc1ccccc1)c1cn2ccn(Cc3cccc(Cl)c3)c(=O)c2c(O)c1=O", "note": "[Example 180, N-benzyl-2-(3-chlorobenzyl)-9-hydroxy-1,8-dioxo-1,8-dihydro-2H-pyrido[1,2-a]pyrazine-7-carboxamide]", "values": [{"measurement": "IC50", "value": "< 10", "unit": "nM"}]}, {"molecule": "O=C(NCC(F)(F)F)c1cn2ccn(Cc3cccc(Cl)c3)c(=O)c2c(O)c1=O", "note": "[Example 181, N-(2,2,2-trifluoroethyl)-2-(3-chlorobenzyl)-9-hydroxy-1,8-dioxo-1,8-dihydro-2H-pyrido[1,2-a]pyrazine-7-carboxamide]", "values": [{"measurement": "IC50", "value": "10 to 100", "unit": "nM"}]}, {"molecule": "CCCCN(C)C(=O)c1cn2ccn(Cc3cccc(Cl)c3)c(=O)c2c(O)c1=O", "note": "[Example 182, N-butyl-N-methyl-2-(3-chlorobenzyl)-9-hydroxy-1,8-dioxo-1,8-dihydro-2H-pyrido[1,2-a]pyrazine-7-carboxamide]", "values": [{"measurement": "IC50", "value": "10 to 100", "unit": "nM"}]}, {"molecule": "COCCN(C)C(=O)c1cn2ccn(Cc3cccc(Cl)c3)c(=O)c2c(O)c1=O", "note": "[Example 183, N-(2-methoxyethyl)-N-methyl-2-(3-chlorobenzyl)-9-hydroxy-1,8-dioxo-1,8-dihydro-2H-pyrido[1,2-a]pyrazine-7-carboxamide]", "values": [{"measurement": "IC50", "value": "10 to 100", "unit": "nM"}]}, {"molecule": "O=C(c1cn2ccn(Cc3cccc(Cl)c3)c(=O)c2c(O)c1=O)N1CCCC1", "note": "[Example 184, 2-(3-chlorobenzyl)-9-hydroxy-7-(pyrrolidine-1-carbonyl)-2H-pyrido[1,2-a]pyrazine-1,8-dione]", "values": [{"measurement": "IC50", "value": "10 to 100", "unit": "nM"}]}, {"molecule": "O=C(c1cn2ccn(Cc3cccc(Cl)c3)c(=O)c2c(O)c1=O)N1CCOCC1", "note": "[Example 185, 2-(3-chlorobenzyl)-9-hydroxy-7-(morpholine-4-carbonyl)-2H-pyrido[1,2-a]pyrazine-1,8-dione]", "values": [{"measurement": "IC50", "value": "10 to 100", "unit": "nM"}]}, {"molecule": "COc1cc(Cn2ccn3ccc(=O)c(O)c3c2=O)ccc1Cl", "note": "[Example 186, 2-(4-chloro-3-methoxybenzyl)-9-hydroxy-2H-pyrido[1,2-a]pyrazine-1,8-dione hydrochloride]", "values": [{"measurement": "IC50", "value": "10 to 100", "unit": "nM"}]}, {"molecule": "COC(=O)Cc1cn2ccn(Cc3cccc(Cl)c3)c(=O)c2c(O)c1=O", "note": "[Example 187, methyl [2-(3-chlorobenzyl)-9-hydroxy-1,8-dioxo-1,8-dihydro-2H-pyrido[1,2-a]pyrazin-7-yl]acetate]", "values": [{"measurement": "IC50", "value": "10 to 100", "unit": "nM"}]}, {"molecule": "O=c1c(-c2nnn[nH]2)cn2ccn(Cc3cccc(Cl)c3)c(=O)c2c1O", "note": "[Example 188, 2-(3-chlorobenzyl)-9-hydroxy-7-(1H-tetrazol-5-yl)-2H-pyrido[1,2-a]pyrazine-1,8-dione hydrochloride]", "values": [{"measurement": "IC50", "value": "10 to 100", "unit": "nM"}]}, {"molecule": "CNC(=O)Cc1cn2ccn(Cc3cccc(Cl)c3)c(=O)c2c(O)c1=O", "note": "[Example 189, 2-[2-(3-chlorobenzyl)-9-hydroxy-1,8-dioxo-1,8-dihydro-2H-pyrido[1,2-a]pyrazin-7-yl]-N-methylacetamide]", "values": [{"measurement": "IC50", "value": "10 to 100", "unit": "nM"}]}, {"molecule": "CN(C)C(=O)Cc1cn2ccn(Cc3cccc(Cl)c3)c(=O)c2c(O)c1=O", "note": "[Example 190, 2-[2-(3-chlorobenzyl)-9-hydroxy-1,8-dioxo-1,8-dihydro-2H-pyrido[1,2-a]pyrazin-7-yl]-N,N-dimethylacetamide]", "values": [{"measurement": "IC50", "value": "10 to 100", "unit": "nM"}]}, {"molecule": "O=C(O)Cc1cn2ccn(Cc3cccc(Cl)c3)c(=O)c2c(O)c1=O", "note": "[Example 191, [2-(3-chlorobenzyl)-9-hydroxy-1,8-dioxo-1,8-dihydro-2H-pyrido[1,2-a]pyrazin-7-yl]acetic acid]", "values": [{"measurement": "IC50", "value": "10 to 100", "unit": "nM"}]}, {"molecule": "CC(O)CNC(=O)c1cn2ccn(Cc3cccc(Cl)c3)c(=O)c2c(O)c1=O", "note": "(stereo not drawn) [Example 192, N-(2-hydroxypropyl)-2-(3-chlorobenzyl)-9-hydroxy-1,8-dioxo-1,8-dihydro-2H-pyrido[1,2-a]pyrazine-7-carboxamide hydrochloride]", "values": [{"measurement": "IC50", "value": "10 to 100", "unit": "nM"}]}, {"molecule": "O=C(O)CNC(=O)c1cn2ccn(Cc3cccc(Cl)c3)c(=O)c2c(O)c1=O", "note": "[Example 193, {[2-(3-chlorobenzyl)-9-hydroxy-1,8-dioxo-1,8-dihydro-2H-pyrido[1,2-a]pyrazine-7-carbonyl]amino}acetic acid]", "values": [{"measurement": "IC50", "value": "10 to 100", "unit": "nM"}]}, {"molecule": "CN(C)C(=O)CNC(=O)c1cn2ccn(Cc3cccc(Cl)c3)c(=O)c2c(O)c1=O", "note": "[Example 194, N-dimethylcarbamoylmethyl-2-(3-chlorobenzyl)-9-hydroxy-1,8-dioxo-1,8-dihydro-2H-pyrido[1,2-a]pyrazine-7-carboxamide]", "values": [{"measurement": "IC50", "value": "10 to 100", "unit": "nM"}]}, {"molecule": "CNC(=O)CNC(=O)c1cn2ccn(Cc3cccc(Cl)c3)c(=O)c2c(O)c1=O", "note": "[Example 195, N-methylcarbamoylmethyl-2-(3-chlorobenzyl)-9-hydroxy-1,8-dioxo-1,8-dihydro-2H-pyrido[1,2-a]pyrazine-7-carboxamide]", "values": [{"measurement": "IC50", "value": "10 to 100", "unit": "nM"}]}, {"molecule": "O=C(Nc1ccccc1)c1cn2ccn(Cc3cccc(Cl)c3)c(=O)c2c(O)c1=O", "note": "[Example 196, N-phenyl-2-(3-chlorobenzyl)-9-hydroxy-1,8-dioxo-1,8-dihydro-2H-pyrido[1,2-a]pyrazine-7-carboxamide hydrochloride]", "values": [{"measurement": "IC50", "value": "10 to 100", "unit": "nM"}]}, {"molecule": "O=c1c(-c2ncco2)cn2ccn(Cc3cccc(Cl)c3)c(=O)c2c1O", "note": "[Example 197, 2-(3-chlorobenzyl)-9-hydroxy-7-(oxazol-2-yl)-2H-pyrido[1,2-a]pyrazine-1,8-dione hydrochloride]", "values": [{"measurement": "IC50", "value": "10 to 100", "unit": "nM"}]}, {"molecule": "O=C(c1cn2ccn(Cc3cccc(Cl)c3)c(=O)c2c(O)c1=O)N1CCC(O)C1", "note": "(stereo not drawn) [Example 198, 2-(3-chlorobenzyl)-9-hydroxy-7-(3-hydroxypyrrolidine-1-carbonyl)-2H-pyrido[1,2-a]pyrazine-1,8-dione hydrochloride]", "values": [{"measurement": "IC50", "value": "10 to 100", "unit": "nM"}]}, {"molecule": "CC(=O)CNC(=O)c1cn2ccn(Cc3cccc(Cl)c3)c(=O)c2c(O)c1=O", "note": "[Example 199, N-(2-oxopropyl)-2-(3-chlorobenzyl)-9-hydroxy-1,8-dioxo-1,8-dihydro-2H-pyrido[1,2-a]pyrazine-7-carboxamide]", "values": [{"measurement": "IC50", "value": "10 to 100", "unit": "nM"}]}, {"molecule": "O=C(Cn1ccn2ccc(=O)c(O)c2c1=O)Nc1ccccc1", "note": "[Example 200, 2-(9-hydroxy-1,8-dioxo-1,8-dihydro-pyrido[1,2-a]pyrazin-2-yl)-N-phenylacetamide hydrochloride]", "values": [{"measurement": "IC50", "value": "100 to 1000", "unit": "nM"}]}, {"molecule": "O=C1CCN(C(=O)c2cn3ccn(Cc4cccc(Cl)c4)c(=O)c3c(O)c2=O)C1", "note": "[Example 201, 2-(3-chlorobenzyl)-9-hydroxy-7-(3-oxopyrrolidine-1-carbonyl)-2H-pyrido[1,2-a]pyrazine-1,8-dione]", "values": [{"measurement": "IC50", "value": "10 to 100", "unit": "nM"}]}, {"molecule": "COc1ccc(Cl)cc1Cn1ccn2ccc(=O)c(O)c2c1=O", "note": "[Example 202, 2-(5-chloro-2-methoxybenzyl)-9-hydroxy-2H-pyrido[1,2-a]pyrazine-1,8-dione hydrochloride]", "values": [{"measurement": "IC50", "value": "10 to 100", "unit": "nM"}]}, {"molecule": "CS(=O)(=O)Nc1cn2ccn(Cc3cccc(Cl)c3)c(=O)c2c(O)c1=O", "note": "[Example 203, N-[2-(3-chlorobenzyl)-9-hydroxy-1,8-dioxo-1,8-dihydro-2H-pyrido[1,2-a]pyrazin-7-yl]methanesulfonamide]", "values": [{"measurement": "IC50", "value": "< 10", "unit": "nM"}]}, {"molecule": "CC(=O)c1cn2ccn(Cc3cccc(Cl)c3)c(=O)c2c(O)c1=O", "note": "[Example 204, 7-acetyl-2-(3-chlorobenzyl)-9-hydroxy-2H-pyrido[1,2-a]pyrazine-1,8-dione hydrochloride]", "values": [{"measurement": "IC50", "value": "< 10", "unit": "nM"}]}, {"molecule": "CCC(=O)c1cn2ccn(Cc3cccc(Cl)c3)c(=O)c2c(O)c1=O", "note": "[Example 205, 2-(3-chlorobenzyl)-9-hydroxy-7-propionyl-2H-pyrido[1,2-a]pyrazine-1,8-dione hydrochloride]", "values": [{"measurement": "IC50", "value": "< 10", "unit": "nM"}]}, {"molecule": "O=c1ccn2ccn(C/C=C/c3ccccc3)c(=O)c2c1O", "note": "[Example 206, 9-hydroxy-2-(3-phenylallyl)-2H-pyrido[1,2-a]pyrazine-1,8-dione]", "values": [{"measurement": "IC50", "value": "10 to 100", "unit": "nM"}]}]}
